Entries after “also recorded” stand apart in the source; their conditions may differ. Starred links: 1 amine or outer side, 2 acyl side, 3 side chain; linkers in the order of their positions; H or OH if unused. Positions of bridges follow the written chain, without caps; N, C: chain ends. Non-standard residues stand in square brackets, D forms with d. Residues, ends and D or L forms follow the SMILES beside them. Chains are numbered I, II in the order given. Actinocin(9to1) = Cc1c2oc3c(C)ccc(C(=O)[*:1])c3nc-2c(C(=O)[*:2])c(N)c1=O; NMeV = CN[C@H](C(=O)O)C(C)C; Sar = CNCC(=O)O
What was measured:
[1] = tested on: T1/ST2 mRNA; assay: T1/ST2 mRNA induction in human adult vascular smooth muscle cells; type: cell-based
[2] = tested on: IL1RL-1 mRNA expression; assay: Northern blot of IL1RL-1 (T1/ST2) mRNA induction in cultured neonatal rat cardiac myocytes, with or without 8% cyclic mechanical strain; type: cell-based; settings: for induction of IL1RL-1 mRNA expression in the absence of mechanical strain: FIG. 2, 3 hours, Ang II 50 nM; for induction of IL1RL-1 mRNA expression in the absence of mechanical strain / rank order potency for the induction of IL1RL-1 mRNA expression / induction of IL1RL-1 mRNA expression by the agent alone: IL-1β 10 ng/ml; for induction of IL1RL-1 mRNA expression in the absence of mechanical strain / rank order potency for the induction of T1/ST2 mRNA expression: PMA 200 nM; for rank order potency for the induction of IL1RL-1 mRNA expression: PMA 100 ng/ml, 8% strain; for induction of IL1RL-1 mRNA expression by the agent alone: PMA 100 ng/ml in the absence of strain; for rank order potency for the induction of T1/ST2 mRNA expression: strain 8%, 1 and 3 hours; for effect on the induction of IL1RL-1 mRNA expression by 8% mechanical strain: FIG. 4, applied during strain, actinomycin D 5 μg/ml (2 and 4 hours), cyclohexamide 10 μg/ml
Source text: The approach to mechanical stimulation used an apparatus that has multiple platens that contact the underside of silicone elastomer membranes to apply a spatially isotropic biaxial strain profile to the membrane (Schaffer J L, et al., J Orthop Res, 1993, 12:709-719; and U.S. Provisional Patent application 60/144,134 filed on Jul. 16, 1999 entitled “AN APPARATUS FOR STUDYING MYOCARDIAL MECHANICAL OVERLOAD HYPERTROPHY AND USES THEREFOR, by Richard T. Lee. Six individual 78 mm membranes can be stretched at once with varying amplitudes of strain by controlling displacement of each platen with a stepper motor. Measured Green strains are accurate to ˜±0.25% at strains from 1-14% (Cheng G C, et al., Circ Res, 1997, 80:28-36; Brown T D, J Biomechanics, 2000, 33:3-14). Throughout this study, 8% biaxial strain was used.
Neonatal rat ventricular myocytes (NRVM) from 1-day old Sprague-Dawley rats were isolated by previously described methods (Springhorn J P, and Claycomb W C., Biochem J, 1989; 258:73-78; Arstall M A, et al., J Mol Cell Cardiol, 1998, 30:1019-25). NRVM were plated on the coated membrane dish at a density of 2,000,000 cells/dish in DMEM containing 7% FCS and incubated 24 h. Approximate cell confluence was 85-90%. NRVM were then made quiescent by washing with 10 ml of Hanks' balanced salt solution (HBSS, 138 mM NaCl, 5.3 mM KCl, 4.0 mM NaHCO3, 1.3 mM CaCl2, 0.5 mM MgCl2, 0.4 mM MgSO4, 0.4 mM KH2PO4, 0.3 mM Na2HPO4, 5.6 mM glucose; Life Technologies, Inc., Rockville, Md.) twice and incubating with 26 ml of DMEM containing 0.2% FCS for 48-72 hours.
The cDNA clones for differentially expressed genes were obtained by PCR using the GenBank sequences. Each clone was sequenced from both 5′ and 3′ ends to confirm identity. Positive elements in the DNA microarray were confirmed by Northern blot hybridization analysis in at least three independent experiments using three different sources of NRVMs. Total RNA was isolated by the guanidium thiocyanate and phenol chloroform method (Chomcyznski, et al., Anal. Biochem., 1987, 162:156-159). For Northern blotting, 15 μg RNA was loaded on a 1.0% agarose-formaldehyde gel (2.0 mol/l), transferred to a nylon membrane (Amersham Pharmacia Biotech AB, Piscataway, N.J.), and UV cross-linked with a UV Stratalinker (Stratagene, Inc., La Jolla, Calif.). Each probe was hybridized with ExpressHyb solution (Clontech Labs., Inc., Palo Alto, Calif.) at 68° C. for 1 hour. The membrane was washed with 2×SSC, 0.05% SDS solution for 30 to 40 minutes and three times at room temperature and 0.1×SSC, 0.1% SDS solution with continuous shaking at 50° C. for 40 minutes. The membrane was exposed to film at −80° C., and radiographs were scanned and analyzed with Optimas 5.0 software (Optimas Co./Media Cybernetics, Silver Springs, Md.). Densitometric units were normalized to the ethidium-stained 28S ribosomal subunit on the membrane.
T1/ST2 mRNA is induced by mechanical strain in cultured neonatal cardiac myocytes. Neonatal rat ventricular myocytes were isolated by collagenase digestion, plated on fibronectin-coated silicone membrane dishes at a density of 3.5 million cells/dish in 13 ml media as previously described (Yamamoto K, et al. J Biol. Chem. 1999; 274:21840-21846). This technique yields cultures with ≧95% myocytes. Mechanical deformation was applied using a device that provides uniform biaxial cyclic strain as previously described (Yamamoto K, et al. J Biol. Chem. 1999; 274:21840-21846). RNA was extracted (Qiagen) and Northern blotting was performed using as a probe a ^32P-labelled 600 bp PCR fragment specific to rat T1/ST2. Maximal induction occurs at 3 hours, is sustained for 9 hours and declines by 15 hours. […]

interleukin-1β [IL-1β]
induction of T1/ST2 mRNA [1]: induced
induction of T1/ST2 RNA in cardiac myocytes [2]: induce T1/ST2 RNA
induction of IL1RL-1 mRNA expression in the absence of mechanical strain [2]: associated with an induction
induction of IL1RL-1 by mechanical strain in the presence of IL-1β ([2]; FIG. 5, 8% strain plus IL-1β 10 ng/ml): not further increased
rank order potency for the induction of IL1RL-1 mRNA expression ([2]; FIG. 5): PMA>strain>IL-1β
induction of IL1RL-1 mRNA expression by the agent alone ([2]; FIG. 5): induced
induction of T1/ST2 by mechanical strain in the presence of interleukin-1β ([2]; FIG. 9, 8% strain plus interleukin-1 10 ng/ml): not further increased
rank order potency for the induction of T1/ST2 mRNA expression ([2]; FIG. 9, interleukin-1 10 ng/ml): PMA>strain>interleukin-1β
rank order potency for the induction of T1/ST2 mRNA expression ([2]; FIG. 9, interleukin-1 10 ng/ml, listed as IL-1): PMA>strain>IL-1
induction of T1/ST2 mRNA in the presence of infection with control adenovirus ([2]; FIG. 10, interleukin-1 10 ng/ml, 4 hours): induced T1/ST2 mRNA

angiotensin II
induction of IL1RL-1 mRNA expression in the absence of mechanical strain [2]: did not induce

C[C@@H]1C[C@@H]([C@H](O)CC2CC(=O)NC(=O)C2)C(=O)[C@@H](C)C1 [cyclohexamide]
effect on the induction of IL1RL-1 mRNA expression by 8% mechanical strain [2]: blocked the induction

O=S(=O)(O)c1cc(O)c(O)c(S(=O)(=O)O)c1 [TIRON]
mRNA expression of IL1RL-1 in the absence and presence of strain ([2]; FIG. 3, TIRON 10 mM): slightly attenuated

CCCCCCCCCCCCCC(=O)O[C@@H]1[C@@H](C)[C@@]2(O)[C@@H](C=C(CO)C[C@]3(O)C(=O)C(C)=C[C@@H]23)[C@@H]2C(C)(C)[C@]12OC(C)=O [PMA]
induction of T1/ST2 mRNA [1]: not
induction of IL1RL-1 mRNA expression in the absence of mechanical strain [2]: associated with an induction
rank order potency for the induction of IL1RL-1 mRNA expression ([2]; FIG. 5): PMA>strain>IL-1β
induction of IL1RL-1 mRNA expression by the agent alone ([2]; FIG. 5): strongest induction
rank order potency for the induction of T1/ST2 mRNA expression ([2]; FIG. 9, interleukin-1 10 ng/ml): PMA>strain>interleukin-1β; also recorded: PMA>strain>IL-1

OO [H2O2, hydrogen peroxide]
effect on the strain-induced induction of IL1RL-1 ([2]; FIG. 3, 8% mechanical strain, H2O2 100 uM): blocks the strain-induced induction
induction of IL1RL-1 in the absence of strain ([2]; FIG. 3, H2O2 100 uM): does not induce

Cc1c2oc3c(C)ccc(C(=O)N[C@@H]4C(=O)N[C@H](C(C)C)C(=O)N5CCC[C@H]5C(=O)N(C)CC(=O)N(C)[C@@H](C(C)C)C(=O)O[C@@H]4C)c3nc-2c(C(=O)N[C@@H]2C(=O)N[C@H](C(C)C)C(=O)N3CCC[C@H]3C(=O)N(C)CC(=O)N(C)[C@@H](C(C)C)C(=O)O[C@@H]2C)c(N)c1=O [Actinomycin D, actinomycin D] (I: T[dV]P[Sar][NMeV] / II: T[dV]P[Sar][NMeV]; ester I:1-I:C, II:1-II:C; linker I:N-II:N via Actinocin(9to1))
effect on the induction of IL1RL-1 mRNA expression by 8% mechanical strain [2]: blocked the induction

Source: US8748116B2, “1L1RL-1 as a cardiovascular disease marker and therapeutic target” (The Brigham and Women s Hospital, Inc., priority 2002, dated 2014)
